Patent publication US20260250289A1, “BICYCLIC HETEROCYCLES AND THEIR USE AS WRN INHIBITORS” (Novartis AG, priority 2022, published 2026)

Experiments:
[1] = molecular target: T1, WRN helicase (aa N517-P1238) (Homo sapiens, UniProt Q14191); assay: WRN ATPase assay (DNA dependent ATP hydrolysis, ADP-Glo); format: biochemical; settings: 3 hours pre-incubation, 300 micromolar ATP, FLAP26 DNA; geometric mean of at least 2
T1 construct: The core helicase motif of the WRN protein (aa N517-P1238) was produced for this assay; His (N); ZZ (N); 3C protease cleavage site (N); made in house; host or cells: Sf21 insect cells (baculovirus; virus and BIICs made in SF9)
T1 sequence (Q14191 517-1238): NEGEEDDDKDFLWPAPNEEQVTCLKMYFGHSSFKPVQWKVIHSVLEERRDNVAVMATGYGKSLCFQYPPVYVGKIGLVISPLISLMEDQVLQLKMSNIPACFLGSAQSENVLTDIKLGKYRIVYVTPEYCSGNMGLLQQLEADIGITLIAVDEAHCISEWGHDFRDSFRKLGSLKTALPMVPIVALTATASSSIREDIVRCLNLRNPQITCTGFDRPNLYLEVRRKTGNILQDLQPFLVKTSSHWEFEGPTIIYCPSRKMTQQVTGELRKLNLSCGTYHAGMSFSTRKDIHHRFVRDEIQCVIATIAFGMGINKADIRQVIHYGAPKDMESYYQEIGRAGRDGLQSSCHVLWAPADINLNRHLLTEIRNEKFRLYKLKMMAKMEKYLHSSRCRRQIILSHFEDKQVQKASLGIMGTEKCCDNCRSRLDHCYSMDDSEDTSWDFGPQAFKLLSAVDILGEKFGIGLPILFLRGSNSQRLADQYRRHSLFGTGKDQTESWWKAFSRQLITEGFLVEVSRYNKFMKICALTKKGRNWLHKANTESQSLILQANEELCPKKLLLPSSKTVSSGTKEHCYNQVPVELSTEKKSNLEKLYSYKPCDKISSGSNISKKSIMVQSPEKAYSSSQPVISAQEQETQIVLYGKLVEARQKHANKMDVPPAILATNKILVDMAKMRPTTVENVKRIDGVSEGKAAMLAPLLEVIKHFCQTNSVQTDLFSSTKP
Procedure, shortened: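 DNA-dependent ATP hydrolysis detected as ADP by ADP-Glo luminescence, using 300 μM ATP, 0.2 nM FLAP26 substrate and 10 nM WRN aa N517-P1238 (Tris pH 7.5 buffer, 2 mM MgCl2, 50 mM NaCl). IC50s fitted from normalized duplicate half-log dilutions; reported as geometric means of at least 2 replicates.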

SW48 cells = assay: Proliferation assay SW48 (CellTiterGlo); format: cell-based; settings: Homo sapiens, SW48, 96 h, SW48 colon carcinoma cells, 96 hours, CellTiterGlo; geometric mean of at least 2; read-out: Proliferation Assay SW48 GI50
Procedure, shortened: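 SW48 cells, 2,000/well, treated after overnight seeding with eight 3-fold compound dilutions (0.1% DMSO) for 96 hours at 37° C. Viability read as ATP by CellTiterGlo luminescence, normalised to a day-0 plate and vehicle to give % growth; GI50 is geometric mean of ≥2 independent replicates.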

DLD1-WRN-KO cells = assay: Proliferation assay DLD1-WRN-KO (CellTiterGlo, off-target effects); format: cell-based; settings: 96 hours, geometric mean of at least 2
Procedure, shortened: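 DLD1 cells with CRISPR knockout of WRN were exposed overnight-seeded to eight 3-fold compound dilutions (0.1% DMSO) for 96 h at 37 °C. Viability was read as ATP by CellTiterGlo luminescence against a day-0 plate, giving GI50 and residual viability at top concentration.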

SMILES: CC(=O)N1CCN(c2c(C)n(CC(=O)Nc3ccc(C(F)(F)F)cc3)c3nc(C4=CCOCC4)nn3c2=O)CC1C (stereo not drawn) [Example 163, 2-(6-(4-acetyl-3-methylpiperazin-1-yl)-2-(3,6-dihydro-2H-pyran-4-yl)-5-methyl-7-oxo-[1,2,4]triazolo[1,5-a]pyrimidin-4(7H)-yl)-N-(4-(trifluoromethyl)phenyl)acetamide]
- IC50 [1]: 1000 nM
- GI50 (SW48 cells): 7000 nM
- GI50 (DLD1-WRN-KO cells): > 10000 nM

SMILES: CC(=O)N1CCN(c2c(C)n(CC(=O)Nc3ccc(C(F)(F)F)nc3Cl)c3nc(C4=CCOCC4)nn3c2=O)CC1 [Example 98, 2-(6-(4-acetylpiperazin-1-yl)-2-(3,6-dihydro-2H-pyran-4-yl)-5-methyl-7-oxo-[1,2,4]triazolo[1,5-a]pyrimidin-4(7H)-yl)-N-(2-chloro-6-(trifluoromethyl)pyridin-3-yl)acetamide]
- IC50 [1]: 1000 nM
- GI50 (SW48 cells): 6000 nM
- GI50 (DLD1-WRN-KO cells): > 10000 nM

SMILES: CC(=O)N1CCN(c2c(C)n(CC(=O)Nc3ccc(C(F)(F)F)cc3)c3nc(C4=CCCO4)nn3c2=O)CC1 [Example 134, 2-(6-(4-acetylpiperazin-1-yl)-2-(4,5-dihydrofuran-2-yl)-5-methyl-7-oxo-[1,2,4]triazolo[1,5-a]pyrimidin-4(7H)-yl)-N-(4-(trifluoromethyl)phenyl)acetamide]
- IC50 [1]: 4000 nM
- GI50 (SW48 cells): 5000 nM
- GI50 (DLD1-WRN-KO cells): > 10000 nM

SMILES: CC(=O)N1CCN(c2c(C)n(CC(=O)Nc3ccc(C(F)(F)F)cc3F)c3nc(C4=CCOCC4)nn3c2=O)CC1 [Example 85, 2-(6-(4-acetylpiperazin-1-yl)-2-(3,6-dihydro-2H-pyran-4-yl)-5-methyl-7-oxo-[1,2,4]triazolo[1,5-a]pyrimidin-4(7H)-yl)-N-(2-fluoro-4-(trifluoromethyl)phenyl)acetamide]
- IC50 [1]: 500 nM
- GI50 (SW48 cells): 4000 nM
- GI50 (DLD1-WRN-KO cells): > 10000 nM

SMILES: CC(=O)N1CCN(c2c(C)n(CC(=O)Nc3ccc(C(F)(F)F)c(F)c3C)c3nc(C4=CCOCC4)nn3c2=O)CC1 [Example 84, 2-(6-(4-acetylpiperazin-1-yl)-2-(3,6-dihydro-2H-pyran-4-yl)-5-methyl-7-oxo-[1,2,4]triazolo[1,5-a]pyrimidin-4(7H)-yl)-N-(3-fluoro-2-methyl-4-(trifluoromethyl)phenyl)acetamide]
- IC50 [1]: 300 nM
- GI50 (SW48 cells): 1000 nM
- GI50 (DLD1-WRN-KO cells): > 10000 nM

SMILES: CCc1ccc(NC(=O)Cn2c(C)c(N3CCN(C(C)=O)CC3)c(=O)n3nc(C4=CCOCC4)nc23)cc1Cl [Example 30, 2-(6-(4-acetylpiperazin-1-yl)-2-(3,6-dihydro-2H-pyran-4-yl)-5-methyl-7-oxo-[1,2,4]triazolo[1,5-a]pyrimidin-4(7H)-yl)-N-(3-chloro-4-ethylphenyl)acetamide]
- IC50 [1]: 100 nM
- GI50 (SW48 cells): 2000 nM
- GI50 (DLD1-WRN-KO cells): > 10000 nM

SMILES: Cc1c(N2CCN(C(=O)c3cc(F)ccc3O)CC2)c(=O)n2nc(C3=CCOCC3)nc2n1CC(=O)Nc1ccc(C(F)(F)F)cc1 [Example 17, 2-(2-(3,6-dihydro-2H-pyran-4-yl)-6-(4-(5-fluoro-2-hydroxybenzoyl)piperazin-1-yl)-5-methyl-7-oxo-[1,2,4]triazolo[1,5-a]pyrimidin-4(7H)-yl)-N-(4-(trifluoromethyl)phenyl)acetamide]
- IC50 [1]: 50 nM
- GI50 (SW48 cells): 900 nM
- GI50 (DLD1-WRN-KO cells): 8000 nM

SMILES: CC(=O)N1CCN(c2c(C)n(CC(=O)Nc3ccc(C(F)(F)F)cc3)c3nc(C4=CCCCO4)nn3c2=O)CC1 [Example 109, 2-(6-(4-acetylpiperazin-1-yl)-2-(3,4-dihydro-2H-pyran-6-yl)-5-methyl-7-oxo-[1,2,4]triazolo[1,5-a]pyrimidin-4(7H)-yl)-N-(4-(trifluoromethyl)phenyl)acetamide]
- IC50 [1]: 200 nM
- GI50 (SW48 cells): 4000 nM
- GI50 (DLD1-WRN-KO cells): > 10000 nM

SMILES: CCc1c(N2CCN(C(=O)c3c(O)ccc4ccncc34)CC2)c(=O)n2nc(C3=CCOCC3)nc2n1CC(=O)Nc1ccc(C(F)(F)F)cc1C [Example 40, 2-(2-(3,6-dihydro-2H-pyran-4-yl)-5-ethyl-6-(4-(7-hydroxyisoquinoline-8-carbonyl)piperazin-1-yl)-7-oxo-[1,2,4]triazolo[1,5-a]pyrimidin-4(7H)-yl)-N-(2-methyl-4-(trifluoromethyl)phenyl)acetamide]
- IC50 [1]: 40 nM
- GI50 (SW48 cells): 600 nM
- GI50 (DLD1-WRN-KO cells): > 10000 nM

SMILES: CC(=O)N1CCN(c2c(C(C)C)n(CC(=O)Nc3ccc(C(F)(F)F)cc3)c3nc(C4=CCOCC4)nn3c2=O)CC1 [Example 162, 2-(6-(4-acetylpiperazin-1-yl)-2-(3,6-dihydro-2H-pyran-4-yl)-5-isopropyl-7-oxo-[1,2,4]triazolo[1,5-a]pyrimidin-4(7H)-yl)-N-(4-(trifluoromethyl)phenyl)acetamide]
- IC50 [1]: 900 nM
- GI50 (SW48 cells): 3000 nM
- GI50 (DLD1-WRN-KO cells): > 10000 nM

SMILES: CCc1c(N2CCN(C(=O)c3nn(C)c(=O)[nH]3)CC2)c(=O)n2nc(C3=CCCC3)nc2n1CC(=O)Nc1ccc(C(F)(F)F)cc1 [Example 12, 2-(2-(cyclopent-1-en-1-yl)-5-ethyl-6-(4-(1-methyl-5-oxo-4,5-dihydro-1H-1,2,4-triazole-3-carbonyl)piperazin-1-yl)-7-oxo-[1,2,4]triazolo[1,5-a]pyrimidin-4(7H)-yl)-N-(4-(trifluoromethyl)phenyl)acetamide]
- IC50 [1]: 10 nM
- GI50 (SW48 cells): 800 nM
- GI50 (DLD1-WRN-KO cells): > 10000 nM

SMILES: CC(=O)N1CCN(c2c(C)n(CC(=O)Nc3ccc(C(F)(F)F)cc3)c3nc(C4=CCC(N5CC(F)(F)C5)CC4)nn3c2=O)CC1 (stereo not drawn) [Example 114, 2-(6-(4-acetylpiperazin-1-yl)-2-(4-(3,3-difluoroazetidin-1-yl)cyclohex-1-en-1-yl)-5-methyl-7-oxo-[1,2,4]triazolo[1,5-a]pyrimidin-4(7H)-yl)-N-(4-(trifluoromethyl)phenyl) acetamide]
- IC50 [1]: 400 nM
- GI50 (SW48 cells): 2000 nM
- GI50 (DLD1-WRN-KO cells): > 10000 nM

SMILES: CC(=O)N1CCC(c2c(C)n(CC(=O)Nc3ccc(C(F)(F)F)cc3)c3nc(C4=CCOCC4)nn3c2=O)CC1 [Example 141, 2-(6-(1-acetylpiperidin-4-yl)-2-(3,6-dihydro-2H-pyran-4-yl)-5-methyl-7-oxo-[1,2,4]triazolo[1,5-a]pyrimidin-4(7H)-yl)-N-(4-(trifluoromethyl)phenyl)acetamide]
- IC50 [1]: 400 nM
- GI50 (SW48 cells): 8000 nM
- GI50 (DLD1-WRN-KO cells): > 10000 nM

SMILES: Cc1c(C2CCN(C(=O)c3c(F)ccc(F)c3O)CC2)c(=O)n2nc(C3=CCCCO3)nc2n1CC(=O)Nc1ccc(C(F)(F)F)cc1 [Example 137, 2-(6-(1-(3,6-difluoro-2-hydroxybenzoyl)piperidin-4-yl)-2-(3,4-dihydro-2H-pyran-6-yl)-5-methyl-7-oxo-[1,2,4]triazolo[1,5-a]pyrimidin-4(7H)-yl)-N-(4-(trifluoromethyl)phenyl) acetamide]
- IC50 [1]: 50 nM
- GI50 (SW48 cells): 300 nM
- GI50 (DLD1-WRN-KO cells): > 10000 nM

SMILES: CC(=O)N1CCN(c2c(C)n(CC(=O)Nc3ccc(Cl)cc3)c3nc(N4CCN(C(=O)OC(C)(C)C)CC4)nn3c2=O)CC1 [Example 158, tert-butyl 4-(6-(4-acetylpiperazin-1-yl)-4-(2-((4-chlorophenyl)amino)-2-oxoethyl)-5-methyl-7-oxo-4,7-dihydro-[1,2,4]triazolo[1,5-a]pyrimidin-2-yl)piperazine-1-carboxylate]
- IC50 [1]: 300 nM
- GI50 (SW48 cells): 3000 nM
- GI50 (DLD1-WRN-KO cells): 1000 nM

SMILES: CC(=O)N1CCN(c2c(C)n(CC(=O)Nc3ccc(C(F)(F)F)cc3)c3nc(C4=CCC(F)(F)CC4)nn3c2=O)CC1 [Example 118, 2-(6-(4-acetylpiperazin-1-yl)-2-(4,4-difluorocyclohex-1-en-1-yl)-5-methyl-7-oxo-[1,2,4]triazolo[1,5-a]pyrimidin-4(7H)-yl)-N-(4-(trifluoromethyl)phenyl)acetamide]
- IC50 [1]: 600 nM
- GI50 (SW48 cells): 9000 nM
- GI50 (DLD1-WRN-KO cells): > 10000 nM

SMILES: Cc1c(N2CCN(C(=O)c3cc(F)ccc3N)CC2)c(=O)n2nc(C3=CCOCC3)nc2n1CC(=O)Nc1ccc(C(F)(F)F)cc1 [Example 157, 2-(6-(4-(2-amino-5-fluorobenzoyl)piperazin-1-yl)-2-(3,6-dihydro-2H-pyran-4-yl)-5-methyl-7-oxo-[1,2,4]triazolo[1,5-a]pyrimidin-4(7H)-yl)-N-(4-(trifluoromethyl)phenyl)acetamide]
- IC50 [1]: 200 nM
- GI50 (SW48 cells): 3000 nM
- GI50 (DLD1-WRN-KO cells): > 10000 nM

SMILES: CC(=O)N1CCN(c2c(C)n(CC(=O)Nc3cc(Cl)c(C(F)(F)F)cc3C)c3nc(C4=CCOCC4)nn3c2=O)CC1 [Example 108, 2-(6-(4-acetylpiperazin-1-yl)-2-(3,6-dihydro-2H-pyran-4-yl)-5-methyl-7-oxo-[1,2,4]triazolo[1,5-a]pyrimidin-4(7H)-yl)-N-(5-chloro-2-methyl-4-(trifluoromethyl)phenyl)acetamide]
- IC50 [1]: 200 nM
- GI50 (SW48 cells): 900 nM
- GI50 (DLD1-WRN-KO cells): > 10000 nM

SMILES: CCc1c(N2CCN(C(=O)c3c(F)ccc(F)c3O)CC2)c(=O)n2nc(C3=CCCCO3)nc2n1CC(=O)Nc1ccc(C(F)(F)F)cc1 [Example 38, 2-(6-(4-(3,6-difluoro-2-hydroxybenzoyl)piperazin-1-yl)-2-(3,4-dihydro-2H-pyran-6-yl)-5-ethyl-7-oxo-[1,2,4]triazolo[1,5-a]pyrimidin-4(7H)-yl)-N-(4-(trifluoromethyl)phenyl)acetamide]
- IC50 [1]: 30 nM
- GI50 (SW48 cells): 100 nM
- GI50 (DLD1-WRN-KO cells): > 10000 nM
